From US9573920B2, “Compound, medicine, anti-inflammatory, cosmetic, food and drink, and method for producing compound” (Amino Up Chemical Co., Ltd., priority 2013, dated 2017)
pIC50: −log10 of the molar value.

Assays:
[1] = system: nitrogen monoxide (NO) production due to IL-1β; test: NO production inhibitory action in IL-1β-stimulated rat liver cells (Griess method); assay type: cell-based; settings: IL-1β 1 nM, 8 hours; for pIC50: nitrite by Griess method, read-out: IC50 value (drug concentration at NO production of 50%)
Method: Liver cells were isolated from male Wistar rats (200 to 250 g, Charles River) by a collagenase perfusion method (collagenase: Wako Pure Chemicals). The isolated liver cells were suspended in a medium at 6×10^5 cells/mL, seeded in 35 mm plastic dishes (Falcon Plastic) (2 mL/dish), and cultured in an incubator with 5% CO2 at 37° C. Williams' Medium E (WE) containing 10% newborn calf serum, HEPES (5 mM), penicillin (100 U/mL), streptomycin (0.1 mg/mL), dexamethasone (10 nM), and insulin (10 nM) was used as the medium. After 5 hours, the medium was replaced with fresh WE free of any serum and hormone, and the cells were cultured overnight until before use of the cells for an experiment.
On day 1 after the start of the culture, cells were subjected to replacement with fresh WE free of any serum and hormone, and recombinant rat IL-1β (purity of 97% or more) (PeproTech, Rocky Hill, N.J., USA), and Pa5 extracted with methanol in Example 1 or negletein in the comparative example were added to the medium. In each medium, the concentration of IL-1β was 1 nM, the concentrations of Pa5 were 5, 10, and 20 μM, and the concentrations of negletein were 10, 20, and 40 μM (FIG. 1). The amount of NO in each medium was measured 8 hours after the addition of IL-1β, and Pa5 or negletein by a Griess method (Green L C et al, Anal Biochem 1982; 126: 131-138). More specifically, the amount of nitrite (stable metabolite of NO) in each medium was measured.
Liver cells originated from rats were cultured in like manner with Example 4. On day 1 after the start of the culture, the cells were subjected to replacement with fresh WE free of any serum and hormone, and recombinant rat IL-1β (similar to that in Example 4) and Pa9 extracted with methanol in Example 3 were added to the medium. In each medium, the concentration of IL-1β was 1 nM, and the concentrations of Pa9 were 10 μM, 50 μM, and 100 μM (FIG. 5). The amount of NO in each medium was measured 8 hours after the addition of IL-1β and Pa9 in like manner with Example 4.

[2] = system: rat liver cells; test: LDH activity of medium (cytotoxicity); assay type: cell-based; settings: IL-1β 1 nM plus Pa5, 8 hours
Method: Further, lactate dehydrogenase (LDH) activity was measured to investigate the cytotoxicity of Pa5. The lactate dehydrogenase (LDH) activity of each medium was measured using LDH Cytotoxicity Detection Kits (Takara Bio Inc.). LDH is an enzyme existing in a cell, and therefore migrates into a medium due to cell damage. Each medium was collected 8 hours after the addition of IL-1β, and Pa5 or negletein, and was used for measuring the activity. Actually, each sample (50 μl of medium) and Solution C (50 μl) in the kit were mixed and left standing at room temperature for 30 minutes, 1 M hydrochloric acid (25 μl) was added to stop the reaction, and the absorbance of the resultant at 490 nm was measured and compared with a calibration curve using LDH of known concentration to determine the LDH activity. The LDH activity of the whole cells on one dish (that is, whole-cell extract) was considered to be a positive control (positive control in FIG. 3), and was regarded as 100%. The medium was removed from each dish containing the liver cells, the cells were washed three times with phosphate buffered saline (PBS), then ultrasonically broken, and centrifuged at 10000×g for 3 minutes to then obtain a supernatant, which was used as a whole-cell extract, and the LDH activity of the cells was measured.

[3] = system: CINC-2α/β; test: cytokine/chemokine array (in vitro), CINC-2α/β; assay type: cell-based, rat; settings: (+) IL-1β 1 nM, Pa5 20 μM
Method: (§1) In like manner with Example 4, liver cells were isolated from male Wistar rats by a collagenase perfusion method. The isolated liver cells were suspended in a medium (similar to that in Example 4) at 1.2×10^6 cells/mL, seeded in 35 mm plastic dishes (similar to those in Example 4) (1 mL/dish), and cultured in an incubator with 5% CO2 at 37° C. After 5 hours, the medium was replaced with fresh WE free of any serum and hormone, and the cells were cultured overnight until before use of the cells for an experiment.
(§2) On day 1 after the start of the culture, cells were subjected to replacement with fresh WE free of any serum and hormone, and IL-1β (similar to that in Example 4), and Pa5 extracted with methanol in Example 1 or Pa5′ extracted with methanol in Example 2 were added to the medium. The concentrations of IL-1β, Pa5, and Pa5′ in each medium were 1 nM, 20 μM, and 100 μM, respectively (Table 1). Then, the cells were cultured at 37° C., and the medium was collected 3 hours after the start of the culture. The collected medium was centrifuged for 1 minute at 5000 rpm to remove cellular debris, and the supernatant was used in an assay. The supernatant was preserved at −80° C. until performing the assay.
(§3) The productions of the various inflammatory cytokines/chemokines were measured according to an accompanying protocol using Rat Cytokine Antibody Array (R&D Systems) (http://www.rndsystems.com/product_detail_objectname_ratcytokinearray.aspx) capable of detecting 29 kinds of cytokines/chemokines in Proteome Profiler® Antibody Array. In the measurement, 1 mL of the supernatant of the medium obtained as described above was used.
(§4) In the above-described method, the 29 kinds of the cytokines/chemokines can be detected at once, and chemiluminescence on the filter of Proteome Profiler Antibody Array increases in proportion to the amount of each cytokine/chemokine. Thus, the chemiluminescence on the filter of Proteome Profiler Antibody Array was detected with LAS3000mini (GE Healthcare), subjected to densitometry analysis, and converted into a numeric value. The densitometry analysis was carried out with reference to http://www.hm6.aitai.ne.jp/˜maxcat/imageJ/technique.html#gels (the heading of “Analyzing Electrophoretic Gels”) using ImageJ software.

[4] = system: CINC-3; test: cytokine/chemokine array (in vitro), CINC-3; assay type: cell-based, rat; settings: (+) IL-1β 1 nM, Pa5 20 μM
Method: as §1, §2, §3, §4

[5] = system: Fractalkine (CX3CL1); test: cytokine/chemokine array (in vitro), Fractalkine; assay type: cell-based, rat; settings: (+) IL-1β 1 nM, Pa5 20 μM
Method: as §1, §2, §3, §4

[6] = system: sICAM-1 (CD54); test: cytokine/chemokine array (in vitro), sICAM-1; assay type: cell-based, rat; settings: (+) IL-1β 1 nM, Pa5 20 μM
Method: as §1, §2, §3, §4

[7] = system: MIG (CXCL9); test: cytokine/chemokine array (in vitro), MIG; assay type: cell-based, rat; settings: (+) IL-1β 1 nM, Pa5 20 μM
Method: as §1, §2, §3, §4

[8] = system: VEGF (VEGF-A/Vasculotropin); test: cytokine/chemokine array (in vitro), VEGF; assay type: cell-based, rat; settings: (+) IL-1β 1 nM, Pa5 20 μM
Method: as §1, §2, §3, §4

[9] = system: IL-17; test: cytokine/chemokine array (in vitro), IL-17; assay type: cell-based, rat; settings: (+) IL-1β 1 nM, Pa5 20 μM
Method: as §1, §2, §3, §4

[10] = system: Thymus Chemokine (CXCL7); test: cytokine/chemokine array (in vitro), Thymus Chemokine; assay type: cell-based, rat; settings: (+) IL-1β 1 nM, Pa5 20 μM
Method: as §1, §2, §3, §4

[11] = system: various inflammatory cytokines/chemokines; test: cytokine/chemokine arrays (in vitro), overall; assay type: cell-based; settings: rat liver cells, IL-1β 1 nM, Pa5 20 μM, 3 hours
Method: as §1, with “experiment. […]” for “experiment.”
as §3, with “In the measurement, 1 mL of the supernatant of the medium obtained as described above was used.” left out
In the above-described method, the 29 kinds of the cytokines/chemokines can be detected at once, and chemiluminescence on the filter of Proteome Profiler Antibody Array increases in proportion to the amount of each cytokine/chemokine. Thus, the chemiluminescence on the filter of Proteome Profiler Antibody Array was detected with LAS3000mini (GE Healthcare), subjected to densitometry analysis, and converted into a numeric value. […]

For `COc1cc2c(c(O)c1OC)OC(c1ccccc1)CC2=O` (stereo not shown) [Pa5, 8-hydroxy-6,7-dimethoxyflavanone], the “degree of NO production inhibitory action, comparison at the same addition concentration” value ([1]; 10 μM) was “higher than that of negletein”, the pIC50 [1] was 5.05 and the “production of NO due to IL-1β” value ([1]; Pa5 5, 10, 20 μM) was “dose-dependently inhibited”. For the same compound, the “LDH activity of medium” value [2] was “equivalent to that in the case of adding IL-1β”, the “cytotoxicity (from LDH activity)” value [2] was “no cytotoxicity” and the “CINC-2α/β (%)” value ([3]; 3 hours, (+) alone = 100.0) was 2.8%. For the same compound, the “CINC-2α/β chemiluminescence densitometry, Average” value ([3]; medium at 3 hours) was 170.2, the “CINC-2α/β chemiluminescence densitometry, first value” ([3]; medium at 3 hours) was 209.7 and the “CINC-2α/β chemiluminescence densitometry, second value” ([3]; medium at 3 hours) was 130.6. The “CINC-3 (%)” value ([4]; 3 hours, (+) alone = 100.0) was 0.6%, the “CINC-3 chemiluminescence densitometry, Average” value ([4]; medium at 3 hours) was 17.1 and the “CINC-3 chemiluminescence densitometry, first value” ([4]; medium at 3 hours) was 16.1. The “CINC-3 chemiluminescence densitometry, second value” ([4]; medium at 3 hours) was 18.1, the “Fractakine (CX3CL1) (%)” value ([5]; 3 hours, (+) alone = 100.0) was 0.0% and the “Fractakine (CX3CL1) chemiluminescence densitometry, Average” value ([5]; medium at 3 hours) was 0.0. The “Fractakine (CX3CL1) chemiluminescence densitometry, first value” ([5]; medium at 3 hours) was 0.0, the “Fractakine (CX3CL1) chemiluminescence densitometry, second value” ([5]; medium at 3 hours) was 0.0 and the “sICAM-1 (CD54) (%)” value ([6]; 3 hours, (+) alone = 100.0) was 0.0%. For the same compound, the “sICAM-1 (CD54) chemiluminescence densitometry, Average” value ([6]; medium at 3 hours) was 0.0, the “sICAM-1 (CD54) chemiluminescence densitometry, first value” ([6]; medium at 3 hours) was 0.0 and the “sICAM-1 (CD54) chemiluminescence densitometry, second value” ([6]; medium at 3 hours) was 0.0. For the same compound, the “MIG (CXCL9) (%)” value ([7]; 3 hours, (+) alone = 100.0) was 0.0%, the “MIG (CXCL9) chemiluminescence densitometry, Average” value ([7]; medium at 3 hours) was 0.0 and the “MIG (CXCL9) chemiluminescence densitometry, first value” ([7]; medium at 3 hours) was 0.0. For the same compound, the “MIG (CXCL9) chemiluminescence densitometry, second value” ([7]; medium at 3 hours) was 0.0, the “VEGF (VEGF-A/Vasculotropin) (%)” value ([8]; 3 hours, (+) alone = 100.0) was 29.0% and the “VEGF (VEGF-A/Vasculotropin) chemiluminescence densitometry, Average” value ([8]; medium at 3 hours) was 236.8. For the same compound, the “VEGF (VEGF-A/Vasculotropin) chemiluminescence densitometry, first value” ([8]; medium at 3 hours) was 241.4, the “VEGF (VEGF-A/Vasculotropin) chemiluminescence densitometry, second value” ([8]; medium at 3 hours) was 232.3 and the “IL-17 (%)” value ([9]; 3 hours, (+) alone = 100.0) was 0.0%. The “IL-17 chemiluminescence densitometry, Average” value ([9]; medium at 3 hours) was 0.0, the “IL-17 chemiluminescence densitometry, first value” ([9]; medium at 3 hours) was 0.0 and the “IL-17 chemiluminescence densitometry, second value” ([9]; medium at 3 hours) was 0.0. The “Thymus Chemokine (CXCL7) (%)” value ([10]; 3 hours, (+) alone = 100.0) was 0.0%, the “Thymus Chemokine (CXCL7) chemiluminescence densitometry, Average” value ([10]; medium at 3 hours) was 0.0 and the “Thymus Chemokine (CXCL7) chemiluminescence densitometry, first value” ([10]; medium at 3 hours) was 0.0. For the same compound, the “Thymus Chemokine (CXCL7) chemiluminescence densitometry, second value” ([10]; medium at 3 hours) was 0.0 and the “induction of various cytokines/chemokines” value [11] was “strongly inhibit”.

`COc1cc2oc(-c3ccccc3)cc(=O)c2c(O)c1O` [negletein, reference compound] was tested, and the pIC50 [1] was 4.79 and the “production of NO due to IL-1β” value ([1]; negletein 10, 20, 40 μM) was “dose-dependently inhibited”.
